From patent US9302999B2, “Substituted triazoles as herbicides” (E. I. DU PONT DE NEMOURS AND COMPANY, priority 2012, dated 2016)

Legend:
[1] = test system: windgrass (Apera spica-venti); assay: Test D pre-/postemergence: windgrass; format: in vivo
Procedure, shortened: (§1)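 Pre- and postemergence herbicide screen. Soil for pre: silt loam; post medium: peat moss, vermiculite, wetting agent, starter nutrients. Plant stage at post: 1- to 4-leaf. Readout: visual % control, 14–21 days.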

[2] = test system: sandbur (southern sandbur, Cenchrus echinatus); assay: Test F pre-/postemergence: sandbur; format: in vivo
Procedure, shortened: (§2)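 Preemergence treatment of seeds sown in silt loam soil, and postemergence treatment of plants 2–18 cm tall (1- to 4-leaf stage), with compounds in non-phytotoxic solvent plus surfactant. Greenhouse 14–21 days, then visual rating versus controls on 0–100 scale (100 = complete control).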

[3] = test system: pigweed (Amaranthus retroflexus); assay: Test D pre-/postemergence: pigweed; format: in vivo
Procedure, shortened: as §1

[4] = test system: speedwell (bird's-eye speedwell, Veronica persica); assay: Test D pre-/postemergence: speedwell; format: in vivo; conditions: Preemergence
Procedure, shortened: as §1

[5] = test system: panicum, fall (fall panicum Panicum dichotomiflorum); assay: Test F pre-/postemergence: panicum, fall; format: in vivo
Procedure, shortened: as §2

[6] = test system: bluegrass (annual bluegrass, Poa annua); assay: Test D pre-/postemergence: bluegrass; format: in vivo
Procedure, shortened: as §1

[7] = test system: foxtail, green (green foxtail, Setaria viridis); assay: Test D pre-/postemergence: foxtail, green; format: in vivo
Procedure, shortened: as §1

[8] = test system: oat, wild (wild oat, Avena fatua); assay: Test D pre-/postemergence: oat, wild; format: in vivo
Procedure, shortened: as §1

[9] = test system: surinam grass (Brachiaria decumbens); assay: Test F pre-/postemergence: surinam grass; format: in vivo; conditions: Preemergence
Procedure, shortened: as §2

Waterhemp = assay: Test C preemergence: waterhemp; format: in vivo, Amaranthus rudis; conditions: scale 0 to 100, 0 no effect, 100 complete control
[10] = Postemergence, 62 g ai/ha, scale 0 to 100 (0 no effect, 100 complete control)
[11] = Postemergence, 125 g ai/ha, scale 0 to 100, 0 no effect, 100 complete control
[12] = Postemergence, 16 g ai/ha, scale 0 to 100
[13] = Postemergence, 31 g ai/ha, scale 0 to 100
[14] = Preemergence, 16 g ai/ha, scale 0 to 100, 0 no effect, 100 complete control
[15] = Preemergence, 31 g ai/ha, scale 0 to 100, 0 no effect, 100 complete control
[16] = Preemergence, 62 g ai/ha, scale 0 to 100
[17] = Preemergence, 125 g ai/ha, scale 0 to 100
[18] = Preemergence, 250 g ai/ha, scale 0 to 100
[19] = Postemergence, 31 g ai/ha, scale 0 to 100 (0 no effect, 100 complete control)
[20] = 16 g ai/ha, scale 0 to 100, 0 no effect, 100 complete control
[21] = 31 g ai/ha, scale 0 to 100, 0 no effect, 100 complete control
[22] = Postemergence, 8 g ai/ha, scale 0 to 100
[23] = Postemergence, 62 g ai/ha, scale 0 to 100
[24] = Postemergence, 125 g ai/ha, scale 0 to 100
[25] = Preemergence, 8 g ai/ha, scale 0 to 100, 0 no effect, 100 complete control

## Cc1nn(-c2ccc(C(F)(F)F)c(F)c2)nc1Oc1ccnc(C(F)(F)F)c1 [Compound 148]
[1]; [10]
  Plant response rating: Windgrass: 60
[1]; [11]
  Plant response rating: Windgrass: 80
[1]; [12]
  Plant response rating, Windgrass: 15
[1]; [13]
  Plant response rating, Windgrass: 30
[1]; [14]
  Plant response rating, Windgrass: 5
[1]; [15]
  Plant response rating, Windgrass: 10
[1]; [16]
  Plant response rating, Windgrass: 35
[1]; [17]
  Plant response rating, Windgrass: 90
[2]; [14]
  Plant response rating, Sandbur: 0
[2]; [15]
  Plant response rating, Sandbur: 0
[2]; [17]
  Plant response rating, Sandbur: 70
[2]; [18]
  Plant response rating, Sandbur: 100
[3]; [19]
  Plant response rating: Pigweed: 85
[3]; [10]
  Plant response rating: Pigweed: 95
[3]; [11]
  Plant response rating: Pigweed: 95
[3]; [12]
  Plant response rating, Pigweed: 70
[3]; [14]
  Plant response rating, Pigweed: 15
[3]; [15]
  Plant response rating, Pigweed: 70
[3]; [16]
  Plant response rating, Pigweed: 85
[3]; [17]
  Plant response rating, Pigweed: 100
[4]; [20]
  Plant response rating, Speedwell: 5
[4]; [21]
  Plant response rating, Speedwell: 95
[4]; 62 g ai/ha, scale 0 to 100
  Plant response rating, Speedwell: 50
[4]; 125 g ai/ha, scale 0 to 100
  Plant response rating, Speedwell: 100
[5]; [14]
  Plant response rating, Panicum, Fall: 75
[5]; [15]
  Plant response rating, Panicum, Fall: 85
[5]; [17]
  Plant response rating, Panicum, Fall: 100
[5]; [18]
  Plant response rating, Panicum, Fall: 100
[6]; [19]
  Plant response rating: Bluegrass: 15
[6]; [10]
  Plant response rating: Bluegrass: 25
[6]; [11]
  Plant response rating: Bluegrass: 70
[6]; [12]
  Plant response rating, Bluegrass: 5
[6]; [14]
  Plant response rating, Bluegrass: 0
[6]; [15]
  Plant response rating, Bluegrass: 15
[6]; [16]
  Plant response rating, Bluegrass: 60
[6]; [17]
  Plant response rating, Bluegrass: 50
[7]; [19]
  Plant response rating: Foxtail, Green: 15
[7]; [10]
  Plant response rating: Foxtail, Green: 50
[7]; [11]
  Plant response rating: Foxtail, Green: 60
[7]; [12]
  Plant response rating, Foxtail, Green: 15
[7]; [14]
  Plant response rating, Foxtail, Green: 15
[7]; [15]
  Plant response rating, Foxtail, Green: 50
[7]; [16]
  Plant response rating, Foxtail, Green: 70
[7]; [17]
  Plant response rating, Foxtail, Green: 100
[8]; [19]
  Plant response rating: Oat, Wild: 15
[8]; [10]
  Plant response rating: Oat, Wild: 30
[8]; [11]
  Plant response rating: Oat, Wild: 55
[8]; [12]
  Plant response rating, Oat, Wild: 5
[8]; [14]
  Plant response rating, Oat, Wild: 5
[8]; [15]
  Plant response rating, Oat, Wild: 20
[8]; [16]
  Plant response rating, Oat, Wild: 30
[8]; [17]
  Plant response rating, Oat, Wild: 65
[9]; [20]
  Plant response rating, Surinam Grass: 25
[9]; [21]
  Plant response rating, Surinam Grass: 40
[9]; 125 g ai/ha, scale 0 to 100
  Plant response rating, Surinam Grass: 98
[9]; 250 g ai/ha, scale 0 to 100
  Plant response rating, Surinam Grass: 98

## FCc1nn(-c2ccc(F)cc2)nc1Oc1ccnc(C(F)(F)F)c1 [Compound 160]
Waterhemp; 125 g ai/ha
  Plant response rating, Waterhemp: 100

## CCOCc1nn(-c2ccc(F)cc2)nc1Oc1ccnc(C(F)(F)F)c1 [Compound 163]
Waterhemp; 125 g ai/ha
  Plant response rating, Waterhemp: 100

## CCOc1nn(-c2ccc(Cl)cc2)nc1Cc1ccnc(C(F)(F)F)c1 [Compound 188]
Waterhemp; 125 g ai/ha
  Plant response rating, Waterhemp: 100
Waterhemp; 250 g ai/ha
  Plant response rating, Waterhemp: 100

## CCOc1nn(-c2ccc(F)cc2)nc1Cc1ccnc(C(F)(F)F)c1 [Compound 196, 4-[[5-ethoxy-2-(4-fluorophenyl)-2H-1,2,3-triazol-4-yl]methyl]-2-(trifluoromethyl)pyridine]
[1]; [10]
  Plant response rating: Windgrass: 95
[1]; [11]
  Plant response rating: Windgrass: 95
[1]; [12]
  Plant response rating, Windgrass: 60
[1]; [13]
  Plant response rating, Windgrass: 75
[1]; [14]
  Plant response rating, Windgrass: 20
[1]; [15]
  Plant response rating, Windgrass: 100
[1]; [16]
  Plant response rating, Windgrass: 100
[1]; [17]
  Plant response rating, Windgrass: 100
[2]; [22]
  Plant response rating, Sandbur: 10
[2]; [12]
  Plant response rating, Sandbur: 20
[2]; [13]
  Plant response rating, Sandbur: 20
[2]; [23]
  Plant response rating, Sandbur: 30
[2]; [24]
  Plant response rating, Sandbur: 50
[2]; [25]
  Plant response rating, Sandbur: 5
[2]; [14]
  Plant response rating, Sandbur: 5
[2]; [15]
  Plant response rating, Sandbur: 5
[2]; [17]
  Plant response rating, Sandbur: 98
[3]; [19]
  Plant response rating: Pigweed: 95
[3]; [10]
  Plant response rating: Pigweed: 95
[3]; [11]
  Plant response rating: Pigweed: 100
[3]; [12]
  Plant response rating, Pigweed: 85
[3]; [14]
  Plant response rating, Pigweed: 65
[3]; [15]
  Plant response rating, Pigweed: 100
[3]; [16]
  Plant response rating, Pigweed: 100
[3]; [17]
  Plant response rating, Pigweed: 100
[4]; [20]
  Plant response rating, Speedwell: 5
[4]; [21]
  Plant response rating, Speedwell: 100
[4]; 62 g ai/ha, scale 0 to 100
  Plant response rating, Speedwell: 100
[4]; 125 g ai/ha, scale 0 to 100
  Plant response rating, Speedwell: 100
[5]; [22]
  Plant response rating, Panicum, Fall: 20
[5]; [12]
  Plant response rating, Panicum, Fall: 40
[5]; [13]
  Plant response rating, Panicum, Fall: 80
[5]; [23]
  Plant response rating, Panicum, Fall: 85
[5]; [24]
  Plant response rating, Panicum, Fall: 85
[5]; [25]
  Plant response rating, Panicum, Fall: 25
[5]; [15]
  Plant response rating, Panicum, Fall: 98
[5]; [17]
  Plant response rating, Panicum, Fall: 100
[6]; [19]
  Plant response rating: Bluegrass: 70
[6]; [10]
  Plant response rating: Bluegrass: 75
[6]; [11]
  Plant response rating: Bluegrass: 80
[6]; [12]
  Plant response rating, Bluegrass: 60
[6]; [14]
  Plant response rating, Bluegrass: 5
[6]; [15]
  Plant response rating, Bluegrass: 35
[6]; [16]
  Plant response rating, Bluegrass: 75
[6]; [17]
  Plant response rating, Bluegrass: 100
[7]; [19]
  Plant response rating: Foxtail, Green: 80
[7]; [10]
  Plant response rating: Foxtail, Green: 85
[7]; [11]
  Plant response rating: Foxtail, Green: 95
[7]; [12]
  Plant response rating, Foxtail, Green: 55
[7]; [14]
  Plant response rating, Foxtail, Green: 60
[7]; [15]
  Plant response rating, Foxtail, Green: 60
[7]; [16]
  Plant response rating, Foxtail, Green: 75
[7]; [17]
  Plant response rating, Foxtail, Green: 100
[8]; [19]
  Plant response rating: Oat, Wild: 50
[8]; [10]
  Plant response rating: Oat, Wild: 45
[8]; [11]
  Plant response rating: Oat, Wild: 70
[8]; [12]
  Plant response rating, Oat, Wild: 15
[8]; [14]
  Plant response rating, Oat, Wild: 25
[8]; [15]
  Plant response rating, Oat, Wild: 30
[8]; [16]
  Plant response rating, Oat, Wild: 75
[8]; [17]
  Plant response rating, Oat, Wild: 100
[9]; 8 g ai/ha, scale 0 to 100, 0 no effect, 100 complete control
  Plant response rating, Surinam Grass: 0
[9]; [21]
  Plant response rating, Surinam Grass: 15
[9]; 125 g ai/ha, scale 0 to 100
  Plant response rating, Surinam Grass: 100
